Measured values: PMC7170507, “Biosynthesis of depsipeptides with a 3-hydroxybenzoate moiety and selective anticancer activities involves a chorismatase” (The Journal of Biological Chemistry, 2020)
Values belong to the compound of their own block, whether it stands above or below them.

Key:
HCT-8 = test: cells; set-up: species or system human cancer cell lines; CCK8 cell viability assay, absorbance at 450 nm; settings: Homo sapiens, 72 h
Description: (§1) Anticancer activities were evaluated by using human lung cancer cells PC9, human colorectal cancer cells Sw620, and human melanoma cells A375. Toxicity study was conducted by using three types of normal cells, 16HBE (an immortalized human bronchial epithelial cells), NCM460 (a normal human colon mucosal epithelial cell line), and HaCaT (a spontaneously immortalized keratinocyte cell line from adult human skin). All the cell lines were obtained from the Shanghai Institute of Cell Biology, Chinese Academy of Sciences. The cell cultivation media (Gibco) were supplemented with 10% fetal bovine serum, 100 units/ml penicillin, and 100 μg/ml streptomycin. The cells were maintained in a humidified atmosphere with 5% CO2 at 37 °C. Half-maximal inhibitory concentration (IC50) was determined by a CCK8 assay (Dojindo, Tokyo, Japan). Briefly, the cells were seeded in 96-well plates at a density of 3 × 10^3 cells/well and incubated for 24 h at 37 °C. Then the cells were treated with various concentrations of compound and incubated for 72 h. Afterward, 10 μl of CCK8 reagent was added to each well before a further incubation for 0.5–4.0 h at 37 °C. Finally, the absorbance of each well in the 96-well plate was measured at 450 nm using microplate reader. Because the 3-FAS moiety has been proposed to be the pharmacophore of anticancer activities in NATs ([3], [11]), we wished to know whether compounds 1–4 with the alternative 3-HBA moiety, instead of 3-FAS, would retain anticancer activities. The carcinoma cell lines of human lung (PC9), colon (Sw620), and melanoma (A375) were firstly selected to evaluate the activities of them, using as positive control the chemotherapeutic drug cisplatin. […] This is consistent with the activities previously shown for unantimycin A, which structurally differs from 1 at the C4 alkyl group and which has shown moderate cytotoxicity (IC50 = ∼10 μM) against human cervix epidermoid carcinoma, promyelocytic leukemia, and sarcoma cell lines ([13]). […] Further work will be required to establish convincingly that the apparently selective anticancer activities of 1–4 are endowed by the absence of binding to the quinone reduction site of the cytochrome bc1 complex, which makes antimycin A lethal to the mitochondrial respiratory chain ([12], [20]). Moreover, the broad-spectrum anticancer activities of 1–4 were evaluated by using six other carcinoma cell lines (Table S9).

HT29 = test: cells; set-up: species or system human cancer cell lines; CCK8 cell viability assay, absorbance at 450 nm; settings: Homo sapiens, HT-29, 72 h
Description: as §1

HepG2 = test: cells; set-up: species or system human cancer cell lines; CCK8 cell viability assay, absorbance at 450 nm; settings: Homo sapiens, 72 h
Description: as §1

Hela = test: cells; set-up: species or system human cancer cell lines; CCK8 cell viability assay, absorbance at 450 nm; settings: Homo sapiens, 72 h
Description: as §1

A549 = test: cells; set-up: species or system human cancer cell lines; CCK8 cell viability assay, absorbance at 450 nm; settings: Homo sapiens, 72 h
Description: as §1

SGC7901 = test: cells; set-up: species or system human cancer cell lines; CCK8 cell viability assay, absorbance at 450 nm; settings: Homo sapiens, SGC-7901, 72 h
Description: as §1

[1] = system: T1, C=C(O[C@@H]1C=C(C(=O)O)C=C[C@H]1O)C(=O)O; test: purified protein; type: biochemical, Streptomyces conglobatus; settings: 50 mM Tris-HCl pH 8.0, 0.5 μM enzyme, 50-300 μM chorismate, 0.5 mM NADH, LDH
T1 construct: catalytic Glu-325

Compound: Nat-hyg5 (Streptomyces conglobatus)
Km [1]: 54 ± 6 µM
kcat [1]: 0.084 ± 0.003 s⁻¹

Compound: CCC(C)C1OC(=O)C(C)(C)C(=O)C(Cc2ccccc2)OC(=O)C(C(C)C)OC(=O)C(NC(=O)c2cccc(O)c2)C(C)OC1=O (centres unmarked) [compound 1, unantimycin B]
IC50 (HCT-8): 17.9 ± 1.4 µM
IC50 (HT29): 19.4 ± 0.1 µM
IC50 (HepG2): 13.4 ± 0.1 µM
IC50 (Hela): 18.2 ± 0.2 µM
IC50 (A549): 7.7 ± 0.07 µM
IC50 (SGC7901): 11.9 ± 0.1 µM

Compound: CCC(C)C1OC(=O)C(C)(C)C(O)C(Cc2ccccc2)OC(=O)C(C(C)C)OC(=O)C(NC(=O)c2cccc(O)c2)C(C)OC1=O (centres unmarked) [compound 2, 2]
IC50 (HCT-8): 9.23 ± 0.16 µM
IC50 (HT29): 14.9 ± 0.3 µM
IC50 (HepG2): 15.2 ± 0.7 µM
IC50 (Hela): 15.3 ± 1.5 µM
IC50 (A549): 2.99 ± 0.02 µM
IC50 (SGC7901): 9.57 ± 0.22 µM

Now from value to compound:

IC50 (HCT-8): 10.9 ± 0.8 µM
IC50 (HT29): 17.6 ± 0.9 µM
IC50 (HepG2): 17.5 ± 0.6 µM
IC50 (Hela): 23 ± 0.4 µM
IC50 (A549): 2.32 ± 0.01 µM
IC50 (SGC7901): 6.63 ± 0.17 µM
Compound: CC(C)C1OC(=O)C(NC(=O)c2cccc(O)c2)C(C)OC(=O)C(C(C)C)OC(=O)C(C)(C)C(=O)C(Cc2ccccc2)OC1=O (centres unmarked) [compound 3, 3]

IC50 (HCT-8): 8.95 ± 0.13 µM
IC50 (HT29): 17.2 ± 0.8 µM
IC50 (HepG2): 18.3 ± 0.7 µM
IC50 (Hela): 23.6 ± 0.5 µM
IC50 (A549): 2.97 ± 0.01 µM
IC50 (SGC7901): 10.1 ± 0.3 µM
Compound: CC(C)C1OC(=O)C(NC(=O)c2cccc(O)c2)C(C)OC(=O)C(C(C)C)OC(=O)C(C)(C)C(O)C(Cc2ccccc2)OC1=O (centres unmarked) [compound 4, 4]
